In ChEMBL document CHEMBL1201862, “PubChem BioAssay data set” (2004):
The source made the active and inactive calls.

Experiments:
[1] = molecular target: T1, Type-1 angiotensin II receptor (Homo sapiens, UniProt P30556); test: AT1 receptor agonists, dose response, selectivity assay for APJ receptor agonist project, cell-based, uHTS hits (AID 488865); assay type: functional;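 note: beta-arrestin recruitment to AT1 measured by enzyme fragment complementation luminescence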
T1 sequence (P30556 whole entry): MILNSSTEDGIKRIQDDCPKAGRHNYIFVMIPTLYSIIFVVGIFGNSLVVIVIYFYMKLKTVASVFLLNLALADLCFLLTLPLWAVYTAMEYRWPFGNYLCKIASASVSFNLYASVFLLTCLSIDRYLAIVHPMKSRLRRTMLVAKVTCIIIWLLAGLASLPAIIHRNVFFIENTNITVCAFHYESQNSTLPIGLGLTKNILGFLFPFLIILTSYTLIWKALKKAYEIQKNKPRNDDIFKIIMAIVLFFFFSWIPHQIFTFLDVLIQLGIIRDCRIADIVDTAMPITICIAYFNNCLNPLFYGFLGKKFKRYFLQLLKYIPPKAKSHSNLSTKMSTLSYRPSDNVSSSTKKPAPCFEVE

[2] = molecular target: T2, Runt-related transcription factor 1/Core-binding factor subunit beta (Homo sapiens, UniProt Q01196+Q13951); test: inhibitors of RUNX1 Runt–CBFb-SMMHC binding, primary screen, biochemical, FRET, Cerulean-Runt, Venus-CBFb-SMMHC, uHTS (AID 1434); assay type: protein assay;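 note: partner is the CBFb-SMMHC leukemia fusion protein rather than wild-type CBFb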
T2 sequence (Q01196 whole entry, the tested form may be a part): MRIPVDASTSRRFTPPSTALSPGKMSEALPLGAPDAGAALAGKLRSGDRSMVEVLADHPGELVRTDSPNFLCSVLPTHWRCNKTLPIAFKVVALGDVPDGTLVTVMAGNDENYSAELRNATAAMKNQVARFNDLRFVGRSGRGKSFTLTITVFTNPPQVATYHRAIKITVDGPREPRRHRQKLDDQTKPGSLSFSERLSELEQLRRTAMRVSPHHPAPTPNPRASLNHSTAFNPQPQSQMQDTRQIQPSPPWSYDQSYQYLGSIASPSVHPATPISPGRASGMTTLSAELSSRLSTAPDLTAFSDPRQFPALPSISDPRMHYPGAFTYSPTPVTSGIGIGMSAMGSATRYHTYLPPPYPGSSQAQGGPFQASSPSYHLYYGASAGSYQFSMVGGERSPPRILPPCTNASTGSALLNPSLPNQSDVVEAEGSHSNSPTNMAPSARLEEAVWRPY
T2 sequence (Q13951 whole entry, the tested form may be a part): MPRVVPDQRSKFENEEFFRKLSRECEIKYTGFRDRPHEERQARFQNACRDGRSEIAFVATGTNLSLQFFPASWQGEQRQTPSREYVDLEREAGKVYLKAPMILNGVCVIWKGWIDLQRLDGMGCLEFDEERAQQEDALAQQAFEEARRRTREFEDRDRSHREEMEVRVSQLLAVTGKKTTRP

[3] = molecular target: T2, Runt-related transcription factor 1/Core-binding factor subunit beta; test: inhibitors of RUNX1 Runt–CBFb-SMMHC binding, biochemical, TR-FRET (AID 1438); assay type: protein assay
[4] = molecular target: T3, Cannabinoid receptor 1 (Homo sapiens, UniProt P21554); test: SAR analysis of antagonists of the Cannabinoid Receptor 1 using an Image-Based Assay - Set 2. [Related pubchem assays (depositor defined):AID2013, AID2026]; assay type: functional
T3 sequence (P21554 whole entry): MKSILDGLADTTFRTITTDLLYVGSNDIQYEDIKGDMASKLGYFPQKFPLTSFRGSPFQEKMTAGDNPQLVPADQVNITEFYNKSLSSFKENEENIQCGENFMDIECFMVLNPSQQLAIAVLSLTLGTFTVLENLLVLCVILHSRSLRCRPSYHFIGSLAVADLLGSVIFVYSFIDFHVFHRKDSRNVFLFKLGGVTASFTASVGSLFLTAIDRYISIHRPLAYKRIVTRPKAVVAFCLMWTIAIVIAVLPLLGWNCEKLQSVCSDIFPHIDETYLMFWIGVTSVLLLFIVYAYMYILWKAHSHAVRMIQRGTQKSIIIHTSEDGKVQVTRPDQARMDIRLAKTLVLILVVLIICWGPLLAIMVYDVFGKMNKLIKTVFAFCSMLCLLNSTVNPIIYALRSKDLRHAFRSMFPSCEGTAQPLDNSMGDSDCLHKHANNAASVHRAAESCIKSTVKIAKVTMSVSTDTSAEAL

[5] = molecular target: T4, G-protein coupled receptor 35 (Homo sapiens, UniProt Q9HC97); test: SAR analysis of Antagonists of the GPR35 Receptor using an Image-Based Assay - Set 3. [Related pubchem assays (depositor defined):AID2013, AID2026]; assay type: functional
T4 sequence (Q9HC97 whole entry): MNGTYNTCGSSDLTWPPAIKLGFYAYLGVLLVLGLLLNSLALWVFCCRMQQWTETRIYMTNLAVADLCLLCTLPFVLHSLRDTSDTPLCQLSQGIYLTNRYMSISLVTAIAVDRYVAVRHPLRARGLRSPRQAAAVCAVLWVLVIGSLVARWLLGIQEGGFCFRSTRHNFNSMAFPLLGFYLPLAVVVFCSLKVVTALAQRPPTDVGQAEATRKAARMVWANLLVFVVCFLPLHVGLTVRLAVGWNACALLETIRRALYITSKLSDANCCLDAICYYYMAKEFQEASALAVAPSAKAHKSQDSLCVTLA

[6] = molecular target: T4, G-protein coupled receptor 35; test: SAR analysis of Agonists of the GPR35 Receptor using an Image-Based Assay - Set 2. [Related pubchem assays (depositor defined):AID2013, AID2026]; assay type: functional
[7] = molecular target: T5, Cannabinoid receptor 2 (Homo sapiens, UniProt P34972); test: SAR analysis of agonists of the Cannabinoid Receptor 2 using an Image-Based Assay. [Related pubchem assays (depositor defined):AID2013, AID2026]; assay type: functional
T5 sequence (P34972 whole entry): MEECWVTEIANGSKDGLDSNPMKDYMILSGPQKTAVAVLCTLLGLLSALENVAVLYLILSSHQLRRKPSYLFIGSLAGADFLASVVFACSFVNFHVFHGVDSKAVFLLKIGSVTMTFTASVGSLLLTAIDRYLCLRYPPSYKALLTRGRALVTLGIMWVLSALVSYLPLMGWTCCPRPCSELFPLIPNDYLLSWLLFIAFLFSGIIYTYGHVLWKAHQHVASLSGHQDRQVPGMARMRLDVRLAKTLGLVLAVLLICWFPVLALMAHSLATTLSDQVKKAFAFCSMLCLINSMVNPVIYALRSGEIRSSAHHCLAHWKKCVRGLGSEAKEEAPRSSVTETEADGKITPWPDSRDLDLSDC

[8] = molecular target: T3, Cannabinoid receptor 1; test: SAR analysis of agonists of the Cannabinoid Receptor 1 using an Image-Based Assay - Set 2. [Related pubchem assays (depositor defined):AID2013, AID2026]; assay type: functional
[9] = molecular target: T5, Cannabinoid receptor 2; test: SAR analysis of antagonists of the Cannabinoid Receptor 2 using an Image-Based Assay. [Related pubchem assays (depositor defined):AID2013, AID2026]; assay type: functional
[10] = molecular target: T6, G-protein coupled receptor 55 (Homo sapiens, UniProt Q9Y2T6); test: GPR55 antagonists blocking LPI-driven arrestin recruitment, primary screen, imaging, U2OS, beta-arrestin-GFP, LPI agonist (AID 2013); assay type: functional;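 note: antagonist potency measured as reduced agonist-driven arrestin aggregation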
T6 sequence (Q9Y2T6 whole entry): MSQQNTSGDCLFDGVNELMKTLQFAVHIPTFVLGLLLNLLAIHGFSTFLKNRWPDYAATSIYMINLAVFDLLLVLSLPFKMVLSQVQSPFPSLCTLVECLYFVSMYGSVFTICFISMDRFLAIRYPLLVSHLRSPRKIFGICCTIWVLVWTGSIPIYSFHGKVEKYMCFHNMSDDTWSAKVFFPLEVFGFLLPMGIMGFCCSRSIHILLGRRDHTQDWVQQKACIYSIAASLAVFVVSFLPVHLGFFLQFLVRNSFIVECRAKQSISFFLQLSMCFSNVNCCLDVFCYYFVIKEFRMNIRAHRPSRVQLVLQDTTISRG

[11] = molecular target: T6, G-protein coupled receptor 55; test: GPR55 antagonist potency of analogs, SAR follow-up, imaging, U2OS, beta-arrestin-GFP, LPI agonist, set 2 (AID 2820); assay type: functional
[12] = molecular target: T5, Cannabinoid receptor 2; test: SAR analysis of agonists of the Cannabinoid Receptor 2 using an Image-Based Assay - Set 3. [Related pubchem assays (depositor defined):AID2013, AID2026]; assay type: functional
[13] = molecular target: T5, Cannabinoid receptor 2; test: SAR analysis of antagonists of the Cannabinoid Receptor 2 using an Image-Based Assay - Set 3. [Related pubchem assays (depositor defined):AID2013, AID2026]; assay type: functional
[14] = molecular target: T4, G-protein coupled receptor 35; test: SAR analysis of Antagonists of the GPR35 Receptor using an Image-Based Assay - Set 6. [Related pubchem assays (depositor defined):AID2013, AID2026]; assay type: functional
[15] = molecular target: T6, G-protein coupled receptor 55; test: SAR Analysis of Selective Antagonists of GPR55 using an Image-Based Assay - Set 4. [Related pubchem assays (depositor defined):AID2013, AID2026]; assay type: functional
[16] = molecular target: T3, Cannabinoid receptor 1; test: SAR analysis of agonists of the Cannabinoid Receptor 1 using an Image-Based Assay - Set 4. [Related pubchem assays (depositor defined):AID2013, AID2026]; assay type: functional
[17] = molecular target: T3, Cannabinoid receptor 1; test: SAR analysis of antagonists of the Cannabinoid Receptor 1 using an Image-Based Assay - Set 4. [Related pubchem assays (depositor defined):AID2013, AID2026]; assay type: functional
[18] = molecular target: T4, G-protein coupled receptor 35; test: SAR analysis of Agonists of the GPR35 Receptor using an Image-Based Assay - Set 4. [Related pubchem assays (depositor defined):AID2013, AID2026]; assay type: functional
[19] = molecular target: Signal transducer and activator of transcription 1-alpha/beta (Homo sapiens, UniProt P42224); test: STAT3 inhibitors, late-stage profile, late-stage follow-up, cell-based, STAT1 panel, qPCR, cytotoxicity, panel member STAT1 Inhibition (AID 2078)
Sequence of Signal transducer and activator of transcription 1-alpha/beta (P42224 whole entry): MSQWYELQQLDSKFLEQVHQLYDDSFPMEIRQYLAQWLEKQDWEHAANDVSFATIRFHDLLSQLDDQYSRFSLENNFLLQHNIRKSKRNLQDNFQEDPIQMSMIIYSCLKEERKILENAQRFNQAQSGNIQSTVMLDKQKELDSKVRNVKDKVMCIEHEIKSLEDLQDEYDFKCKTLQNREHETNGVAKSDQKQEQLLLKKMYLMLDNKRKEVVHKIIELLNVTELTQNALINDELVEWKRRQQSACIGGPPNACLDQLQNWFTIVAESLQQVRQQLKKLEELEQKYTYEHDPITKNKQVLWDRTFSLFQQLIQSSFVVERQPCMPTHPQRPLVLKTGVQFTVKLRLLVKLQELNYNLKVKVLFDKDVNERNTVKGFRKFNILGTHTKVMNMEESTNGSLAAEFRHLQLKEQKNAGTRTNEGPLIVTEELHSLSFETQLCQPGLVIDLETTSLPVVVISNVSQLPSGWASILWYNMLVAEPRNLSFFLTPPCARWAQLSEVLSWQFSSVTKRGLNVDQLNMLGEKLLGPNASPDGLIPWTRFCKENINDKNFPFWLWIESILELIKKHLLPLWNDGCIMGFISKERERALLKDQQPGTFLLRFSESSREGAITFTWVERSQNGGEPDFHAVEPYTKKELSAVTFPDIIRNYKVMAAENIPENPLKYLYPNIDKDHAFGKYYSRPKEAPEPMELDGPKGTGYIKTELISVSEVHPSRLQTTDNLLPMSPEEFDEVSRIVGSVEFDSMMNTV

[20] = molecular target: Signal transducer and activator of transcription 3 (Homo sapiens, UniProt P40763); test: STAT3 inhibitors, late-stage profile, late-stage follow-up, cell-based, STAT1 panel, qPCR, cytotoxicity, panel member STAT3 Inhibition (AID 2078)
[21] = molecular target: Sphingosine 1-phosphate receptor 2 (Homo sapiens, UniProt O95136); test: (§1) Late-stage fluorescence-based dose-response cell-based assay to identify agonists of the Sphingosine 1-Phosphate Receptor 4 (S1P4): Sphingosine 1-Phosphate Receptor 2 (S1P2) counterscreen assay. [Related pubchem assays (depositor defined):AID1509, AID1523, AID1563, AID1686, AID1701, AID1801, AID463107, AID463225, AID504400]; assay type: functional
Sequence of Sphingosine 1-phosphate receptor 2 (O95136 whole entry): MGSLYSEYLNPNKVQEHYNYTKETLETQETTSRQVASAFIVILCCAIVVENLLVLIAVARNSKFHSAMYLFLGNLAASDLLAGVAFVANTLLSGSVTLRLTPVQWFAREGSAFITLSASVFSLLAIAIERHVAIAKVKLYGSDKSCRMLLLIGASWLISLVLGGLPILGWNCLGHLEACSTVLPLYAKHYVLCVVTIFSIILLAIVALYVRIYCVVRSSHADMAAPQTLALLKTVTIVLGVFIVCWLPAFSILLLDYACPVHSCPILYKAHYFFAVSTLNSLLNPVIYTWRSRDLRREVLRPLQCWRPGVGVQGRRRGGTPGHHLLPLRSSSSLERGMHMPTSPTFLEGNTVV

[22] = molecular target: Sphingosine 1-phosphate receptor 3 (Homo sapiens, UniProt Q99500); test: as §1, with “3 (S1P3)” for “2 (S1P2)”; assay type: functional
Sequence of Sphingosine 1-phosphate receptor 3 (Q99500 whole entry): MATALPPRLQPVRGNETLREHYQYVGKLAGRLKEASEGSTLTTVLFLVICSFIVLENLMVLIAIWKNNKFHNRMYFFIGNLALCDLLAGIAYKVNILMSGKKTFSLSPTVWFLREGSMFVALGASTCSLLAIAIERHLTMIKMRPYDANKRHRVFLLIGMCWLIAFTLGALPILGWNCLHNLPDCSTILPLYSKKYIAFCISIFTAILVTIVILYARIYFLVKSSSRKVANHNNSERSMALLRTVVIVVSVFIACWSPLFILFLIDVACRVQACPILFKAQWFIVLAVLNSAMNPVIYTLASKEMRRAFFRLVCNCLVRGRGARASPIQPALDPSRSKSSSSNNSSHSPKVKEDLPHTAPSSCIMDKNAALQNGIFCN

[23] = molecular target: Sphingosine 1-phosphate receptor 5 (Homo sapiens, UniProt Q9H228); test: as §1, with “5 (S1P5)” for “2 (S1P2)”; assay type: functional
[24] = molecular target: Sphingosine 1-phosphate receptor 1 (Homo sapiens, UniProt P21453); test: as §1, with “1 (S1P1)” for “2 (S1P2)”; assay type: functional
Sequence of Sphingosine 1-phosphate receptor 1 (P21453 whole entry): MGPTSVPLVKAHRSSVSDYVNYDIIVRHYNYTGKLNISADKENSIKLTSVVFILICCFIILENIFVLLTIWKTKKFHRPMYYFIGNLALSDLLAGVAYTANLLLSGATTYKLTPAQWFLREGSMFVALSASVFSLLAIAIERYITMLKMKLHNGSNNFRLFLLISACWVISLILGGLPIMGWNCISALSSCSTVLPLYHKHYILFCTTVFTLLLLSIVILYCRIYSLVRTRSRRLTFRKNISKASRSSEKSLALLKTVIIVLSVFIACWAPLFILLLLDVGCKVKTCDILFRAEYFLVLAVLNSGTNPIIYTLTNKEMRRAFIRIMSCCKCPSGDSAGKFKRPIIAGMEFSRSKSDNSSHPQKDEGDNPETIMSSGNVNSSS

[25] = molecular target: T7, Dual specificity protein phosphatase 6 (Rattus norvegicus, UniProt Q64346); assay type: functional;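 note: confirmatory in vitro dose-response testing of MKP-3 inhibition; recombinant His-tagged MKP-3 made in E. coli BL21 with OMFP substrate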
T7 sequence (Q64346 whole entry): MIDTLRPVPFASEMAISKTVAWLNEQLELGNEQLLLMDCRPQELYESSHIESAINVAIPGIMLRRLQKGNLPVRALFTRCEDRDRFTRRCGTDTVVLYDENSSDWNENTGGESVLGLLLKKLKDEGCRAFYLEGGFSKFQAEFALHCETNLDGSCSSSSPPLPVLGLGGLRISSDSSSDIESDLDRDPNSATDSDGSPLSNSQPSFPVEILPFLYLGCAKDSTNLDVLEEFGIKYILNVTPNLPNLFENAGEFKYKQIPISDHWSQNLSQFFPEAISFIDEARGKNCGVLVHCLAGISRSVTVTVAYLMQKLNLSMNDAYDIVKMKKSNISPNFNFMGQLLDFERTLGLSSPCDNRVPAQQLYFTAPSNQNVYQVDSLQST

[26] = molecular target: Dual specificity protein phosphatase 3 (Homo sapiens, UniProt P51452); test: SAR VHR1 Fluorescent Assay for In Vitro dose response studies Set 2. [Related pubchem assays (depositor defined):AID1654, AID1661, AID1878]; assay type: functional
Sequence of Dual specificity protein phosphatase 3 (P51452 whole entry): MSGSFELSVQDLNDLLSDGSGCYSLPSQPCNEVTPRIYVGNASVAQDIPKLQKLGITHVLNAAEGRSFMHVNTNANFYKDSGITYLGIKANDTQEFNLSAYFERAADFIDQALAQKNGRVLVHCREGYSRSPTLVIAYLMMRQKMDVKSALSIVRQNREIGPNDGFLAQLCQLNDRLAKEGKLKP

[27] = molecular target: T8, Tyrosine-protein phosphatase non-receptor type 22 (Homo sapiens, UniProt Q9Y2R2); test: LYP (PTPN22) phosphatase inhibitor potency, SAR follow-up, biochemical, pCAP fluorogenic substrate, fluorescence, set 3 (AID 449727); assay type: functional
T8 sequence (Q9Y2R2 whole entry): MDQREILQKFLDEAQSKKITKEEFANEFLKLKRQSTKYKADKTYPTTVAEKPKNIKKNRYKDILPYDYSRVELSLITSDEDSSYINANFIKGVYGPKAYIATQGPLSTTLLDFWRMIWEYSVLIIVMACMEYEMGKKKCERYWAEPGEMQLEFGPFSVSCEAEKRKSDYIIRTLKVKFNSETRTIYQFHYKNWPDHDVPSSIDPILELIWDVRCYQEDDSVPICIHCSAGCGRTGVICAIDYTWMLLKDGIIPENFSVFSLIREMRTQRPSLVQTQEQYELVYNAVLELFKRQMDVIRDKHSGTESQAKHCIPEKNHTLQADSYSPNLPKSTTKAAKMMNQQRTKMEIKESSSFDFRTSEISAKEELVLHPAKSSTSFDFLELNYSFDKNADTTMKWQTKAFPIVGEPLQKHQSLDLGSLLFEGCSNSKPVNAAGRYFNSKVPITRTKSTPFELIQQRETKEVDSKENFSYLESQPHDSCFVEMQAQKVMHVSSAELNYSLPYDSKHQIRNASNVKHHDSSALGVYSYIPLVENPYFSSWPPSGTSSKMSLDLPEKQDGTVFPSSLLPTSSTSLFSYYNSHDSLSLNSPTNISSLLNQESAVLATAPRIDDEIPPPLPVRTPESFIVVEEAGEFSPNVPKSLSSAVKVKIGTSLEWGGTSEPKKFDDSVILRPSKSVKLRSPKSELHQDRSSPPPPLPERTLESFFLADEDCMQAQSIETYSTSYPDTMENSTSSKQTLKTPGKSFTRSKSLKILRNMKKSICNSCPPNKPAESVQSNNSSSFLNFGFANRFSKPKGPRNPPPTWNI

[28] = molecular target: Tyrosine-protein phosphatase non-receptor type 12 (Homo sapiens, UniProt Q05209); test: SAR Selectivity Analysis of small molecule inhibitors of PEST using pCAP in a fluorescence assay. [Related pubchem assays (depositor defined):AID1779, AID1784, AID2135]; assay type: functional
Sequence of Tyrosine-protein phosphatase non-receptor type 12 (Q05209 whole entry): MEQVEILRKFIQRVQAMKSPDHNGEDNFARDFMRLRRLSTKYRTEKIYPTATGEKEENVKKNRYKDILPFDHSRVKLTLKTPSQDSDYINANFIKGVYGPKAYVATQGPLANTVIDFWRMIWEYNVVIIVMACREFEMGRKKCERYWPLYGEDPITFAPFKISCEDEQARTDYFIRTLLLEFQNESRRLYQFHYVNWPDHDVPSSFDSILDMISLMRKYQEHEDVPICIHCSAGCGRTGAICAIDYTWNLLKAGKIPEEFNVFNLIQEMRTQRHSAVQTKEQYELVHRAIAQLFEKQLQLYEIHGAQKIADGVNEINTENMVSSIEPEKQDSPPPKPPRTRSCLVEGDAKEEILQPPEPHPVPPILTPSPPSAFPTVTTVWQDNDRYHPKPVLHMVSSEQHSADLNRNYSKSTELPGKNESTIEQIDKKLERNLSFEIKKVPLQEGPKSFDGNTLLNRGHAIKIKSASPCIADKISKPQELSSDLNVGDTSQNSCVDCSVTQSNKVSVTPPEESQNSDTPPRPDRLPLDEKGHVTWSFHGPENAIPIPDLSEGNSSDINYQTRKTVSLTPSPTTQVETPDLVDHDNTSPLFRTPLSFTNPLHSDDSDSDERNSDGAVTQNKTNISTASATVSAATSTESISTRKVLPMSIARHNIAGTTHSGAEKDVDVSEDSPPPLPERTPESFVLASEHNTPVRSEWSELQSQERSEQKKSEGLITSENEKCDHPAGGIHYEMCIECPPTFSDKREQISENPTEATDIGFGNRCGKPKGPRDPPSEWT

[29] = molecular target: T8, Tyrosine-protein phosphatase non-receptor type 22; test: SAR LYP1 Fluorescent Assay using OMFP substrate for In Vitro dose response studies - Set 3. [Related pubchem assays (depositor defined):AID1779, AID1784, AID2140, AID2686]; assay type: functional
[30] = molecular target: T9, Tyrosine-protein phosphatase non-receptor type 7 (Homo sapiens, UniProt P35236); test: HePTP (PTPN7) phosphatase inhibitor potency, SAR follow-up, biochemical, set 2 (AID 449736); assay type: functional
T9 sequence (P35236 whole entry): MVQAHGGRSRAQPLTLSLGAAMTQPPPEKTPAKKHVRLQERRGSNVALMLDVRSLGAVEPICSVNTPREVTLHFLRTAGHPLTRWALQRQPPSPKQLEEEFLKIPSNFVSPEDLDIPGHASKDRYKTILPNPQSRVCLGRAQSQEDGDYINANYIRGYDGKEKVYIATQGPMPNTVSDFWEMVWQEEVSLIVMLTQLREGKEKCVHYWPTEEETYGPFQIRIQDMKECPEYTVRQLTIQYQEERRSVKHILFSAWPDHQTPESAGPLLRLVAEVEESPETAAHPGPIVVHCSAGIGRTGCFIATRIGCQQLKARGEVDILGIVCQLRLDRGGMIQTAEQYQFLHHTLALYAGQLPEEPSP

[31] = molecular target: T9, Tyrosine-protein phosphatase non-receptor type 7; test: redox-dependent HePTP inhibition, mechanism study, biochemical, fluorescence (AID 2068); assay type: functional

COc1cc(NC(=S)NC(=O)CCc2ccccc2)cc(OC)c1
EC50 [1]: > 100 µM (inactive)

CCc1nnc(NC(=O)c2sc3nc4c(cc3c2N)CCCCC4)s1
IC50 [2]: 26.5 µM (active) | IC50 [3]: 16.6 µM (active)

O=C(N1CCC(n2nc(-c3ccccc3)oc2=O)CC1)C1(c2ccc(Cl)cc2)CC1
IC50 [4]: 9.6 µM (active) | IC50 [5]: > 32 µM (inactive) | EC50 [6]: > 32 µM (inactive) | EC50 [7]: > 32 µM (inactive) | EC50 [8]: > 32 µM (inactive) | IC50 [9]: > 32 µM (inactive) | IC50 [10]: 0.68 µM (active) | IC50 [11]: 0.76 µM (active)

Cc1nc(N2CCN(C(=O)C(C)C)CC2)c2c3c(sc2n1)CCCC3
EC50 [12]: > 32 µM (inactive) | IC50 [13]: > 32 µM (inactive) | IC50 [14]: > 32 µM (inactive) | IC50 [15]: 22.7 µM (inactive) | EC50 [16]: > 32 µM (inactive) | IC50 [17]: 14.7 µM (inactive) | EC50 [18]: > 32 µM (inactive)

Cc1nc(N2CCC(C(O)c3ccccc3)CC2)c2c3c(sc2n1)CCCC3 (stereo unspecified)
IC50 [19]: > 55.7 µM (inactive) | IC50 [20]: > 55.7 µM (inactive)

Cc1ccc(OCCOc2ccc(Cl)cc2Cl)c(Br)n1
EC50 [21]: > 50 µM (inactive) | EC50 [22]: > 50 µM (inactive) | EC50 [23]: > 50 µM (inactive) | EC50 [24]: > 50 µM (inactive)

COC(=O)COc1ccc(/C=C2\SC(=Nc3ccc(F)cc3)NC2=O)cc1
IC50 [25]: 50.7 µM (active) | IC50 [26]: 2.49 µM (active) | IC50 [27]: 3.39 µM (active) | IC50 [28]: 0.975 µM (active) | IC50 [29]: 3.49 µM (active) | IC50 [30]: 1.58 µM (active) | IC50 [31]: 1.07 µM (active)
